Legend:
Type in all cases: in vivo
Poa trivialis = experiment: Outdoor trial, post-emergence herbicidal action against Poa trivialis
Procedure: (§1) The herbicidal efficacy of the active compounds or active compound mixtures was scored visually by comparing the treated pots (soil) with untreated controls. The damage and development of all above-ground plant parts was recorded. Scoring was done on a percentage scale (100% action=all plants dead or not emerged; 50% action=50% of the plants and green plant parts dead or not emerged; 0% action=no discernible action=like control plot). The score figures of in any case 4 repetitions (pots) were averaged.
(§2) Seeds or rhizome pieces of monocotyledonous and dicotyledonous weeds are placed in sandy loam in pots, covered with soil and grown in the greenhouse under good growth conditions (temperature, atmospheric humidity, water supply). Three weeks after sowing, the test plants are treated in the three-leaf stage with the compositions according to the invention. The compositions according to the invention, formulated as wettable powders or emulsion concentrates, are sprayed onto the green plant parts in various dosages using an application rate of 300 to 800 l of water/ha (converted). After the test plants have remained in the greenhouse under optimum growth conditions for about 3 to 4 weeks, the effect of the preparations is scored visually in comparison with untreated controls (scoring as in Example 1). […]

Festuca rubra = experiment: Outdoor trial, post-emergence herbicidal action against Festuca rubra
Procedure: as §1, §2

Lolium multiflorum = experiment: Outdoor trial, post-emergence herbicidal action against Lolium multiflorum; conditions: application at the 2-5-leaf stage (post-emergence), evaluation 55 days after treatment
Procedure: as §1
Seeds or rhizome pieces of monocotyledonous and dicotyledonous weeds are placed in sandy loam in pots, covered with soil and grown in the greenhouse under good growth conditions (temperature, atmospheric humidity, water supply). Three weeks after sowing, the test plants are treated in the three-leaf stage with the compositions according to the invention. The compositions according to the invention, formulated as wettable powders or emulsion concentrates, are sprayed onto the green plant parts in various dosages using an application rate of 300 to 800 l of water/ha (converted). After the test plants have remained in the greenhouse under optimum growth conditions for about 3 to 4 weeks, the effect of the preparations is scored visually in comparison with untreated controls (scoring as in Example 1). The compositions according to the invention also have good herbicidal post-emergence action against a broad spectrum of economically important weed grasses and broad-leaf weeds.
Corresponding to the greenhouse experiments of sections 1 and 2, the tests were carried out in the open on plots. Scoring was carried out analogously to the tests in sections 1 and 2.
Certain combinations were tested for their herbicidal activity in accordance to the general example in section 3 in combination with section 2 (post-emergence method).

[1] = 600 g of AS/ha, application at stage 21, evaluation 35 days after treatment
[2] = 200 g of AS/ha, application at stage 21 of the harmful plants, evaluation 35 days after treatment

Compound: CP(=O)(O)CCC(N)C(=O)O (racemic) [(B2.1.1.1), 4-[hydroxy(methyl)phosphinoyl]-DL-homoalanine, reference compound]
- Herbicidal action [%] against Poa trivialis (Poa trivialis; [1]): 88%
- Herbicidal action [%] against Festuca rubra (Festuca rubra; [1]): 87%

Compound: O=C(O)CNCP(=O)(O)O [(B2.1.2.1), N-(phosphonomethyl)glycine, reference compound]
- Herbicidal action [%] against Lolium multiflorum (Lolium multiflorum; 1080 g of AS/ha): 18%

Compound: Cc1ccc2c(c1)[C@H](Nc1nc(N)nc([C@@H](C)F)n1)CC2 [(A11), 2-amino-4-[(1R)-6-methylindan-1-ylamino]-6-[(1R)-1-fluoroethyl]-1,3,5-triazine]
- Herbicidal action [%] against Poa trivialis (Poa trivialis; [2]): 0%
- Herbicidal action [%] against Festuca rubra (Festuca rubra; [2]): 0%
- Herbicidal action [%] against Lolium multiflorum (Lolium multiflorum; 200 g of AS/ha): 20%
- Herbicidal action [%] against Lolium multiflorum (Lolium multiflorum; 300 g of AS/ha): 50%

From patent publication US20060014642A1, “Herbicidal compositions” (Bayer CropScience GmbH, priority 2004, published 2006)
